± gives the expanded uncertainty stated by the source.
What was measured:
[1] = Crystal; DTA
[2] = Molar enthalpy of transition or fusion; conditions: Crystal; DSC

| SMILES | Normal melting temperature [1] [°C] | Molar enthalpy of transition or fusion [2] [kcal/mol] |
| --- | --- | --- |
| NC(=O)c1cnccn1 [pyrazinecarboxamide] | 188.27 ± 1.1 | 6.72 ± 0.191 |
| CCCCCCCCCC[N+](C)(C)CCCCCCCCCC.O=[N+]([O-])[O-] [Didecyldimethylammonium nitrate] | 31.7 ± 1.1 | 2.33 ± 0.0789 |
| NNC(=O)c1ccncc1 [isonicotinic acid hydrazide] | 172.69 ± 1.1 | 6.67 ± 0.191 |
